Columns and labels:
Cytochrome P450 1A2 = target: T1, Cytochrome P450 1A2 (Homo sapiens, UniProt P05177); assay: Inhibition of CYP1A2 (unknown origin) at >25 uM; format: ADME
T1 sequence (P05177 whole entry): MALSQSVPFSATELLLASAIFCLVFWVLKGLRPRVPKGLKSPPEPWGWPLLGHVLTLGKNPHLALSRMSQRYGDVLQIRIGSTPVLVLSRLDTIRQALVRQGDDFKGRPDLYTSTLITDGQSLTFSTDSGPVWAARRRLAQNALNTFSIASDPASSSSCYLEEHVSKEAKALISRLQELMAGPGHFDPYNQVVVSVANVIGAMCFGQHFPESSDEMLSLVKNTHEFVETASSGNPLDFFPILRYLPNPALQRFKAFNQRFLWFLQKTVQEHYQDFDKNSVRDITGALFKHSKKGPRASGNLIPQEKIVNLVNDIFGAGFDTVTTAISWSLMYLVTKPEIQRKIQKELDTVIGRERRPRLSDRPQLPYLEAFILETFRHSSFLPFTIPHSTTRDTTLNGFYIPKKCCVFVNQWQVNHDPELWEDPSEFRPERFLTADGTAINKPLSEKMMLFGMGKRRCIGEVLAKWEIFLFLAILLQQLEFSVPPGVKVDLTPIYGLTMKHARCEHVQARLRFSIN

[1] = AUC in Sprague-Dawley rat at 3 mg/kg, po measured upto 24 hrs by LC-MS/MS analysis; format: ADME, organism-based; set-up: dose 3 mg/kg, time < 24 hrs, route po; conditions: in vivo
[2] = Cmax in Sprague-Dawley rat at 3 mg/kg, po measured upto 24 hrs by LC-MS/MS analysis; format: ADME, organism-based; set-up: dose 3 mg/kg, time < 24 hrs, route po; conditions: in vivo
[3] = AUC in Cynomolgus monkey at 2 mg/kg, po measured upto 24 hrs by LC-MS/MS analysis; format: ADME, organism-based, Macaca fascicularis; set-up: dose 2 mg/kg, time < 24 hrs, route po; conditions: in vivo
[4] = Intrinsic clearance in human liver microsomes at 1 uM measured upto 30 mins by LC/MS analysis; format: ADME, Microsome; conditions: read-out: CLH (converted)
Cytochrome P450 2D6 = Cytochrome P450 2D6 (Homo sapiens, UniProt P10635); assay: Inhibition of CYP2D6 (unknown origin) at >25 uM; format: ADME
Cytochrome P450 2C8 = target: T2, Cytochrome P450 2C8 (Homo sapiens, UniProt P10632); assay: Inhibition of CYP2C8 (unknown origin) at >25 uM; format: ADME
T2 sequence (P10632 whole entry): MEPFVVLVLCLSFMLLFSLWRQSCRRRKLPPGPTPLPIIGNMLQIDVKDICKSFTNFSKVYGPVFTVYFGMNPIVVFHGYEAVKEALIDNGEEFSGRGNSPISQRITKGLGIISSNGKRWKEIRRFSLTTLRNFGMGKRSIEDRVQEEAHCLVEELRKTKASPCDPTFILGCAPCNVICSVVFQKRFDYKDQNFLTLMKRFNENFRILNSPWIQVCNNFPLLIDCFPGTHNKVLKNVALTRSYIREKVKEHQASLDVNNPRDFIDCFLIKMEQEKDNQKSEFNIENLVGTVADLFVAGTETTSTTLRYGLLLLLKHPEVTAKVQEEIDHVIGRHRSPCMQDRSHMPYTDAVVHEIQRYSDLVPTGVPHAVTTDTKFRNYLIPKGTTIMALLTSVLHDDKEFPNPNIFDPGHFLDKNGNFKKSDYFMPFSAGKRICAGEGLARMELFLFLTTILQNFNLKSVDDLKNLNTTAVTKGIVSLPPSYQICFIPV

[5] = Oral bioavailability in Cynomolgus monkey at 2 mg/kg measured upto 24 hrs by LC-MS/MS analysis; format: ADME, organism-based, Macaca fascicularis; conditions: in vivo
Cytochrome P450 3A4 = Cytochrome P450 3A4 (Homo sapiens, UniProt P08684); assay: Inhibition of CYP3A4 (unknown origin) at >25 uM; format: ADME
[6] = Hepatic blood flow in Cynomolgus monkey at 0.3 mg/kg, iv measured upto 24 hrs by LC-MS/MS analysis; format: ADME, organism-based, Macaca fascicularis; conditions: in vivo
Cytochrome P450 2B6 = target: T3, Cytochrome P450 2B6 (Homo sapiens, UniProt P20813); assay: Inhibition of CYP2B6 (unknown origin) at >25 uM; format: ADME
T3 sequence (P20813 whole entry): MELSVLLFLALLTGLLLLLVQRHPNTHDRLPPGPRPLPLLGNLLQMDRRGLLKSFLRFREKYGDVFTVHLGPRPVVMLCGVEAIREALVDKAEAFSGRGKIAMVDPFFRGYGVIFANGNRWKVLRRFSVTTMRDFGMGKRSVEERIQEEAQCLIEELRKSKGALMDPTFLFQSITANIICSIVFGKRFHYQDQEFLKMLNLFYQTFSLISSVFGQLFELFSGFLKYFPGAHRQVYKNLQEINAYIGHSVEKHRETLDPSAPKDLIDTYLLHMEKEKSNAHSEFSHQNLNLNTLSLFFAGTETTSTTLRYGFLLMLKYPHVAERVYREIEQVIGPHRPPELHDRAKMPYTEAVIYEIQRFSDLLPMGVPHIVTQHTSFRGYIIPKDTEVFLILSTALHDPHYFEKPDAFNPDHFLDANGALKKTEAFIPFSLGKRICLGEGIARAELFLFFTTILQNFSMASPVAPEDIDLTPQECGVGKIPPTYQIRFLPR

[7] = Cmax in Cynomolgus monkey at 2 mg/kg, po measured upto 24 hrs by LC-MS/MS analysis; format: ADME, organism-based, Macaca fascicularis; set-up: dose 2 mg/kg, time < 24 hrs, route po; conditions: in vivo
Cytochrome P450 2C19 = Cytochrome P450 2C19 (Homo sapiens, UniProt P33261); assay: Inhibition of CYP2C19 (unknown origin) at >25 uM; format: ADME
[8] = Volume of distribution at steady state in Sprague-Dawley rat at 0.5 mg/kg, iv measured upto 24 hrs by LC-MS/MS analysis; format: ADME, organism-based; conditions: Sprague-Dawley, in vivo, read-out: Vdss
[9] = Volume of distribution at steady state in Cynomolgus monkey at 0.3 mg/kg, iv measured upto 24 hrs by LC-MS/MS analysis; format: ADME, organism-based, Macaca fascicularis; conditions: in vivo, read-out: Vdss
[10] = target: Cyclin-dependent kinase 2 (Homo sapiens, UniProt P24941); assay: Inhibition of CDK2 in human COV318 cells incubated for overnight in presence of human whole blood by HTRF assay; format: cell-based
Cytochrome P450 2C9 = Cytochrome P450 2C9 (Homo sapiens, UniProt P11712); assay: Inhibition of CYP2C9 (unknown origin) at >25 uM; format: ADME
[11] = Oral bioavailability in Sprague-Dawley rat at 3 mg/kg measured upto 24 hrs by LC-MS/MS analysis; format: ADME, organism-based; conditions: in vivo
[12] = Hepatic blood flow in Sprague-Dawley rat at 0.5 mg/kg, iv measured upto 24 hrs by LC-MS/MS analysis; format: ADME, organism-based; conditions: in vivo
hERG (KCNH2) = hERG (KCNH2) (Homo sapiens, UniProt Q12809); assay: Displacement of [3H]Dofetilide from human ERG at 10 uM incubated for 24 hrs by filter binding assay relative to control; format: toxicity; conditions: probe [3H]dofetilide
Homo sapiens [13] = species on record: Homo sapiens; assay: Selectivity ratio of IC50 for inhibition of CDK9 (unknown origin) to IC50 for inhibition recombinant human N-terminal GST-tagged full-length CDK2/Flag-tagged cyclinE1 expressed in baculovirus expression system
Homo sapiens [14] = species on record: Homo sapiens; assay: Selectivity ratio of IC50 for inhibition of CDK6/cyclin D1 (unknown origin) to IC50 for inhibition recombinant human N-terminal GST-tagged full-length CDK2/Flag-tagged cyclinE1 expressed in baculovirus expression system
Homo sapiens [15] = species on record: Homo sapiens; assay: Selectivity ratio of IC50 for inhibition of CDK7 (unknown origin) to IC50 for inhibition recombinant human N-terminal GST-tagged full-length CDK2/Flag-tagged cyclinE1 expressed in baculovirus expression system
[16] = Solubility of compound; format: physicochemical
[17] = target: Cyclin-dependent kinase 2/cyclin E1 (Homo sapiens, UniProt P24941); assay: Inhibition of recombinant human N-terminal GST-tagged full-length CDK2/Flag-tagged cyclinE1 expressed in baculovirus expression system using eIF4E-binding protein-1 peptide as substrate incubated for 1 hr in presence of ATP by HTRF assay
Homo sapiens [18] = species on record: Homo sapiens; assay: Selectivity ratio of IC50 for inhibition of CDK1 (unknown origin) to IC50 for inhibition recombinant human N-terminal GST-tagged full-length CDK2/Flag-tagged cyclinE1 expressed in baculovirus expression system
Homo sapiens [19] = species on record: Homo sapiens; assay: Selectivity ratio of IC50 for inhibition of CDK4 (unknown origin) to IC50 for inhibition recombinant human N-terminal GST-tagged full-length CDK2/Flag-tagged cyclinE1 expressed in baculovirus expression system
Homo sapiens [20] = species on record: Homo sapiens; assay: Selectivity ratio of IC50 for inhibition of CDK6 (unknown origin) to IC50 for inhibition recombinant human N-terminal GST-tagged full-length CDK2/Flag-tagged cyclinE1 expressed in baculovirus expression system
Homo sapiens [21] = species on record: Homo sapiens; assay: Selectivity ratio of IC50 for inhibition of CDK4/cyclin D1 (unknown origin) to IC50 for inhibition recombinant human N-terminal GST-tagged full-length CDK2/Flag-tagged cyclinE1 expressed in baculovirus expression system
[22] = Metabolic stability in Cynomolgus monkey liver microsomes assessed as compound demethylation at 5 uM measured upto 30 mins by HPLC/MS analysis; format: ADME, Macaca fascicularis, Microsome; conditions: 0.5 h
[23] = Metabolic stability in Sprague-Dawley rat liver microsomes assessed as compound demethylation at 5 uM measured upto 30 mins by HPLC/MS analysis; format: ADME, Microsome; conditions: 0.5 h
[24] = Metabolic stability in Cynomolgus monkey liver microsomes assessed as remaining parent compound at 5 uM measured upto 30 mins by HPLC/MS analysis; format: ADME, Macaca fascicularis, Microsome; conditions: 0.5 h
[25] = Metabolic stability in human liver microsomes assessed as compound demethylation at 5 uM measured upto 30 mins by HPLC/MS analysis; format: ADME, Microsome; conditions: 0.5 h
[26] = Metabolic stability in Sprague-Dawley rat liver microsomes assessed as remaining parent compound at 5 uM measured upto 30 mins by HPLC/MS analysis; format: ADME, Microsome; conditions: 0.5 h
[27] = Metabolic stability in human liver microsomes assessed as compound oxidation at 5 uM measured upto 30 mins by HPLC/MS analysis; format: ADME, Microsome; conditions: microsomes, 0.5 h, 5 µM
Homo sapiens [28] = species on record: Homo sapiens; assay: Selectivity ratio of IC50 for inhibition of CDK1/cyclin B (unknown origin) to IC50 for inhibition recombinant human N-terminal GST-tagged full-length CDK2/Flag-tagged cyclinE1 expressed in baculovirus expression system
[29] = Metabolic stability in Sprague-Dawley rat liver microsomes assessed as compound oxidation at 5 uM measured upto 30 mins by HPLC/MS analysis; format: ADME, Microsome; conditions: 0.5 h
[30] = Metabolic stability in Cynomolgus monkey liver microsomes assessed as compound oxidation at 5 uM measured upto 30 mins by HPLC/MS analysis; format: ADME, Macaca fascicularis, Microsome; conditions: 0.5 h
[31] = Metabolic stability in human liver microsomes assessed as remaining parent compound at 5 uM measured upto 30 mins by HPLC/MS analysis; format: ADME, Microsome; conditions: microsomes, 0.5 h, 5 µM

Cytochrome P450 2C9, sequence (P11712 whole entry): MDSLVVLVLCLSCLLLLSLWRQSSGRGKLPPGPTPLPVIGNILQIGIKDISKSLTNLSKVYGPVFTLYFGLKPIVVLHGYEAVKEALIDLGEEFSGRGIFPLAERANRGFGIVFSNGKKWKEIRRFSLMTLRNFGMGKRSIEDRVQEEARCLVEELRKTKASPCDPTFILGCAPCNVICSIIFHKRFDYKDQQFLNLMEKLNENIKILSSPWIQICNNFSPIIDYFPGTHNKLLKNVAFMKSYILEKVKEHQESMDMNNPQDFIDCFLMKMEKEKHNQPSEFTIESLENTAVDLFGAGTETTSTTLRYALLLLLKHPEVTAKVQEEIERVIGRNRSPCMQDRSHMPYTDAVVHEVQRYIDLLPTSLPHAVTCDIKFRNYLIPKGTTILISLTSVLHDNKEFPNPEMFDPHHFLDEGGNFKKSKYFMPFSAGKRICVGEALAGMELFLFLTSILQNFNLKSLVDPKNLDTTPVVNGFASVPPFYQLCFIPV
Cytochrome P450 3A4, sequence (P08684 whole entry): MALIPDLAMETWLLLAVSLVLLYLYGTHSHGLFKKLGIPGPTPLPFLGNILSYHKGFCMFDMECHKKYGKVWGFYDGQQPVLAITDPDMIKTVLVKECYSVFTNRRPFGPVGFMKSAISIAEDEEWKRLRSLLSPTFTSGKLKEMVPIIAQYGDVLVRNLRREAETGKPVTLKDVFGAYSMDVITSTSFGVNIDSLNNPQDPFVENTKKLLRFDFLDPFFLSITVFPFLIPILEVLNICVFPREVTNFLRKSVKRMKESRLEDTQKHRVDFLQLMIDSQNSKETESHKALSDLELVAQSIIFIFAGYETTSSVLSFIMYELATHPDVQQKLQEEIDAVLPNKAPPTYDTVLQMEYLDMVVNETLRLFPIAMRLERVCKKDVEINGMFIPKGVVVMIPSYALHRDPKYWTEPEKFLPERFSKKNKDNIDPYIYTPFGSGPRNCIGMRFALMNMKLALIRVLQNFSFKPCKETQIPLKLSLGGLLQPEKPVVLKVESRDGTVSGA
Cytochrome P450 2D6, sequence (P10635 whole entry): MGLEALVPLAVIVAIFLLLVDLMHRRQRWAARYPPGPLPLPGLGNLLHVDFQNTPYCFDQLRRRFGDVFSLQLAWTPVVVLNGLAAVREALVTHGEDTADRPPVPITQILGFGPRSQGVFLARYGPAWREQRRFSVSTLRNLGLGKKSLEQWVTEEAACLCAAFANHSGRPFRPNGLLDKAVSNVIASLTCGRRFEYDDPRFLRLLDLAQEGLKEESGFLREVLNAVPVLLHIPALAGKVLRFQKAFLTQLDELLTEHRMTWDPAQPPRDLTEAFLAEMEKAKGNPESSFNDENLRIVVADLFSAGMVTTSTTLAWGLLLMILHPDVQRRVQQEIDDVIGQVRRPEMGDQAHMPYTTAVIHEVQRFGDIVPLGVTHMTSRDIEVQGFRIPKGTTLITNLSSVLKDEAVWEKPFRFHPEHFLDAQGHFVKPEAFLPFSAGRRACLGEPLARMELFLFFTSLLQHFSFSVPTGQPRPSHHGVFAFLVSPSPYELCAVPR
hERG (KCNH2), sequence (Q12809 whole entry): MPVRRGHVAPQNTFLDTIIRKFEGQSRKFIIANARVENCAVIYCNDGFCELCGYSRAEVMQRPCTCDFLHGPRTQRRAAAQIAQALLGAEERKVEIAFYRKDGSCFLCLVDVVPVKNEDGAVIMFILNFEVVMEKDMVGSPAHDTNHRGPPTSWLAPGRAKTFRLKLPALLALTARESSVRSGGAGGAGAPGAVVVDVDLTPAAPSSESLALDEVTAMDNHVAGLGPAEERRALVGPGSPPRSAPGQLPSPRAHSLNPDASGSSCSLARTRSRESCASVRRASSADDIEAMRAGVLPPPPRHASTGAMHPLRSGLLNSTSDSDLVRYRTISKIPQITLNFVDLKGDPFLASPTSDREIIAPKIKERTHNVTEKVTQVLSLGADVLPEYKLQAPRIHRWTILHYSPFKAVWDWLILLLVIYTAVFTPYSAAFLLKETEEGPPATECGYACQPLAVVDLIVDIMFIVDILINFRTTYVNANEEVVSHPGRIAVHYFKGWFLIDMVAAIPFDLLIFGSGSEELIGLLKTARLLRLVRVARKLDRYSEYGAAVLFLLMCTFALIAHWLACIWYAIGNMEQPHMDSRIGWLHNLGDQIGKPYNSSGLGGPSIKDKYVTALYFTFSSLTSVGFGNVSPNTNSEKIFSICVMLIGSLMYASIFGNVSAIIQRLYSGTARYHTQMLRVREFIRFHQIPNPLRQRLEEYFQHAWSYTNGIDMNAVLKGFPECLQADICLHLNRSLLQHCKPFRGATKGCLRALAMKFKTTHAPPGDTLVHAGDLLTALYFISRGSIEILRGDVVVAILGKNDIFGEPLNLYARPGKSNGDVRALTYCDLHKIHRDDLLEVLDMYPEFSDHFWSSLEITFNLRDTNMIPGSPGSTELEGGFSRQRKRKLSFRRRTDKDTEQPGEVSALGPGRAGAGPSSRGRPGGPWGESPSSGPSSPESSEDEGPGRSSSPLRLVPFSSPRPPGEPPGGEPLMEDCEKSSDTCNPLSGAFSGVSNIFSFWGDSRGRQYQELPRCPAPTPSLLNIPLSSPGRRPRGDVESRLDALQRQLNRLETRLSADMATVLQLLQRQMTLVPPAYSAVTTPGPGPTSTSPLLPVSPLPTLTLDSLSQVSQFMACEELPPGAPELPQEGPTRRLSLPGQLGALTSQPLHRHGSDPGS
Cytochrome P450 2C19, sequence (P33261 whole entry): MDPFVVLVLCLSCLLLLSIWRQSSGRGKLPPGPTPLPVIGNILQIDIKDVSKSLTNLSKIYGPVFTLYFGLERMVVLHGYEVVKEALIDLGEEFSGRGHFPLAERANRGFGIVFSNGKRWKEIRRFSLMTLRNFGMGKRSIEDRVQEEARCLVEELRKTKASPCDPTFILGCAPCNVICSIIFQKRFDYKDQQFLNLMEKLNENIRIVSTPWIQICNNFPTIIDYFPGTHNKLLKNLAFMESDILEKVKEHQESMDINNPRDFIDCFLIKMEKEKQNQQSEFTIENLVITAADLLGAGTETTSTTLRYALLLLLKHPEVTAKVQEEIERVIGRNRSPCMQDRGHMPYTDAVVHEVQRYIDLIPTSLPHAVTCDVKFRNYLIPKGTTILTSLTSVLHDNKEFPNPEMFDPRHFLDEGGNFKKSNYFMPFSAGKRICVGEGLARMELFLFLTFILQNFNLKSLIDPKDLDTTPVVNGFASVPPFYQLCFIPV

[2H]C([2H])([2H])NS(=O)(=O)c1ccc(Nc2ncc3c(n2)N([C@@H]2CCC[C@@H](O)C2)C(=O)C32CC2)cc1
inhibition (INH) (Cytochrome P450 1A2): Active
AUC at 24 h [1]: 1150 nM·h
Cmax [2]: 0.992 µM
AUC at 24 h [3]: 739 nM·h
predicted hepatic clearance at 1 µM [4]: 0.7 L/h/kg
inhibition (INH) (Cytochrome P450 2D6): Active
inhibition (INH) (Cytochrome P450 2C8): Active
bioavailability [5]: 100%
inhibition (INH) (Cytochrome P450 3A4): Active
QH [6]: 70%
inhibition (INH) (Cytochrome P450 2B6): Active
Cmax [7]: 0.138 µM
inhibition (INH) (Cytochrome P450 2C19): Active
Vd [8]: 1.1 L/kg
Vd [9]: 3.5 L/kg
IC50 [10]: 0.642 µM
inhibition (INH) (Cytochrome P450 2C9): Active
bioavailability [11]: 100%
QH [12]: > 100%
inhibition at 24 h, 10 µM (hERG (KCNH2)): 9.7%

Cn1cc(S(=O)(=O)N2CCC(Nc3ncc4c(n3)N([C@@H]3CCC[C@@H](O)C3)C(=O)C43CC3)CC2)cn1
inhibition (INH) (Cytochrome P450 1A2): Active
AUC at 24 h [1]: 1130 nM·h
Cmax [2]: 0.562 µM
AUC at 24 h [3]: 388 nM·h
predicted hepatic clearance at 1 µM [4]: 1 L/h/kg
Ratio IC50 (Homo sapiens [13]): 2500
inhibition (INH) (Cytochrome P450 2D6): Active
Ratio IC50 (Homo sapiens [14]): 35
inhibition (INH) (Cytochrome P450 2C8): Active
bioavailability [5]: 12%
Ratio IC50 (Homo sapiens [15]): 1100
solubility [16]: > 0.4 mg/mL
inhibition (INH) (Cytochrome P450 3A4): Active
IC50 [17]: 0.002 µM
QH [6]: 48%
inhibition (INH) (Cytochrome P450 2B6): Active
Ratio IC50 (Homo sapiens [18]): 660
Ratio IC50 (Homo sapiens [19]): 110
Ratio IC50 (Homo sapiens [20]): 35
Cmax [7]: 0.056 µM
inhibition (INH) (Cytochrome P450 2C19): Active
Vd [8]: 2 L/kg
Vd [9]: 1.2 L/kg
IC50 [10]: 0.316 µM
inhibition (INH) (Cytochrome P450 2C9): Active
bioavailability [11]: 59%
QH [12]: 96%
inhibition at 24 h, 10 µM (hERG (KCNH2)): 7.2%
Ratio IC50 (Homo sapiens [21]): 110

CNS(=O)(=O)c1ccc(Nc2ncc3c(n2)N([C@@H]2CCC[C@@]2(C)O)C(=O)C32CC2)cc1 (relative stereo)
Drug metabolism [22]: 98%
Drug metabolism [23]: 35%
predicted hepatic clearance at 1 µM [4]: 0.8 L/h/kg
Ratio IC50 (Homo sapiens [13]; tested as the 2H-labelled form): 2800
Ratio IC50 (Homo sapiens [14]): 88
Stability [24]: 0.1%
Drug metabolism [25]: 26%
IC50 [17]: 0.0012 µM
Ratio IC50 (Homo sapiens [18]; tested as the 2H-labelled form): 490
Stability [26]: 0.1%
Drug metabolism [27]: 6%
Ratio IC50 (Homo sapiens [19]; tested as the 2H-labelled form): 240
Ratio IC50 (Homo sapiens [20]; tested as the 2H-labelled form): 95
Ratio IC50 (Homo sapiens [28]): 520
IC50 [10]: 0.35 µM
Drug metabolism [29]: 74%
Drug metabolism [30]: 8%
Stability [31]: 68%
Ratio IC50 (Homo sapiens [21]): 230

Source: ChEMBL document CHEMBL5126669, “Discovery of 5,7-Dihydro-6H-pyrrolo[2,3-d]pyrimidin-6-ones as Highly Selective CDK2 Inhibitors” (ACS Med Chem Lett, 2022)
